Experimental data published in patent publication US10597388B2, “Pyridazinone herbicides” (FMC CORPORATION, priority 2014, dated 2020).

Legend:
Test in all cases: Test D controlled growth environment herbicide test, pre- and postemergence
Type in all cases: in vivo
[1] = system: chamomile (scentless chamomile, Matricaria inodora)
Procedure, shortened: (§1)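 Species sown in silt loam and sprayed preemergence, or grown in peat-based medium to 2–18 cm (1- to 4-leaf stage) and sprayed postemergence, with compounds in non-phytotoxic solvent plus surfactant. Visual injury scored versus controls after 14–21 d in a controlled environment, 0 (no effect) to 100 (complete control).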

[2] = system: foxtail, green (green foxtail, Setaria viridis)
Procedure, shortened: as §1

[3] = system: wheat, spring (spring wheat, Triticum aestivum)
Procedure, shortened: as §1

[4] = system: chickweed (common chickweed, Stellaria media)
Procedure, shortened: as §1

[5] = system: lambsquarters (Chenopodium album)
Procedure, shortened: as §1

[6] = system: blackgrass (Alopecurus myosuroides)
Procedure, shortened: as §1

[7] = system: ryegrass, Italian (Italian ryegrass, Lolium multiflorum)
Procedure, shortened: as §1

[8] = system: barley, spring (spring barley, Hordeum vulgare)
Procedure, shortened: as §1

[9] = system: bromegrass, downy (downy bromegrass, Bromus tectorum)
Procedure, shortened: as §1

[10] = system: deadnettle (henbit deadnettle, Lamium amplexicaule)
Procedure, shortened: as §1

[11] = system: barley, winter (winter barley, Hordeum vulgare)
Procedure, shortened: as §1

[12] = system: field poppy (Papaver rhoeas)
Procedure, shortened: as §1

[13] = system: wheat, winter (winter wheat, Triticum aestivum)
Procedure, shortened: as §1

[14] = Postemergence, 31 g ai/ha, scale 0 to 100 (0 no effect, 100 complete control)
[15] = Postemergence, 125 g ai/ha, visual rating on scale 0 (no effect) to 100 (complete control), 14 to 21 d
[16] = Postemergence, 250 g ai/ha, scale 0 to 100 (0 no effect, 100 complete control)
[17] = postemergence, 62 g ai/ha, scale 0 to 100, 0 no effect, 100 complete control
[18] = Preemergence, 125 g ai/ha, scale 0 to 100 (0 no effect, 100 complete control)
[19] = Preemergence, 250 g ai/ha, scale 0 to 100 (0 no effect, 100 complete control)
[20] = Preemergence, 62 g ai/ha, scale 0 to 100 (0 no effect, 100 complete control)

Cc1cc(C)c2sc(C)c(-c3c(OC(=O)OCCCl)c(C)nn(C)c3=O)c2c1 [Compound 85]
Chamomile plant response rating [1, 14]: 75 | Plant response rating, Chamomile [1, 15]: 90 | Plant response rating, Chamomile [1, 16]: 85 | Plant response rating, Chamomile [1, 17]: 75 | Foxtail, Green plant response rating [2, 14]: 75 | Plant response rating, Foxtail, Green [2, 15]: 85 | Plant response rating, Foxtail, Green [2, 16]: 85 | Plant response rating (scale of 0 to 100), Foxtail, Green ([2]; Preemergence, 31 g ai/ha): 25 | Plant response rating (scale of 0 to 100), Foxtail, Green ([2]; Preemergence, 62 g ai/ha): 55 | Plant response rating, Foxtail, Green [2, 18]: 100 | Plant response rating, Foxtail, Green [2, 19]: 100 | Plant response rating, Foxtail, Green [2, 17]: 80 | Wheat, Spring plant response rating [3, 14]: 0 | Plant response rating, Wheat, Spring [3, 15]: 15 | Plant response rating, Wheat, Spring [3, 16]: 20 | Plant response rating (scale of 0 to 100), Wheat, Spring ([3]; Preemergence, 31 g ai/ha): 0 | Plant response rating (scale of 0 to 100), Wheat, Spring ([3]; Preemergence, 62 g ai/ha): 0 | Plant response rating, Wheat, Spring [3, 18]: 15 | Plant response rating, Wheat, Spring [3, 19]: 40 | Plant response rating, Wheat, Spring [3, 17]: 0 | Chickweed plant response rating [4, 14]: 90 | Plant response rating, Chickweed [4, 15]: 100 | Plant response rating, Chickweed [4, 16]: 100 | Plant response rating (scale of 0 to 100), Chickweed ([4]; Preemergence, 31 g ai/ha): 100 | Plant response rating (scale of 0 to 100), Chickweed ([4]; Preemergence, 62 g ai/ha): 100 | Plant response rating, Chickweed [4, 18]: 100 | Plant response rating, Chickweed [4, 19]: 100 | Plant response rating, Chickweed [4, 17]: 100 | Lambsquarters plant response rating [5, 14]: 80 | Plant response rating, Lambsquarters [5, 15]: 95 | Plant response rating, Lambsquarters [5, 16]: 95 | Plant response rating (scale of 0 to 100), Lambsquarters ([5]; Preemergence, 31 g ai/ha): 25 | Plant response rating (scale of 0 to 100), Lambsquarters ([5]; Preemergence, 62 g ai/ha): 100 | Plant response rating, Lambsquarters [5, 18]: 100 | Plant response rating, Lambsquarters [5, 19]: 100 | Plant response rating, Lambsquarters [5, 17]: 85 | Blackgrass plant response rating [6, 14]: 75 | Plant response rating, Blackgrass [6, 15]: 90 | Plant response rating, Blackgrass [6, 16]: 90 | Plant response rating (scale of 0 to 100), Blackgrass ([6]; Preemergence, 31 g ai/ha): 75 | Plant response rating, Blackgrass [6, 20]: 80 | Plant response rating, Blackgrass [6, 18]: 85 | Plant response rating, Blackgrass [6, 19]: 85 | Plant response rating, Blackgrass [6, 17]: 80 | Ryegrass, Italian plant response rating [7, 14]: 80 | Plant response rating, Ryegrass, Italian [7, 15]: 85 | Plant response rating, Ryegrass, Italian [7, 16]: 90 | Plant response rating (scale of 0 to 100), Ryegrass, Italian ([7]; Preemergence, 31 g ai/ha): 55 | Plant response rating (scale of 0 to 100), Ryegrass, Italian ([7]; Preemergence, 62 g ai/ha): 80 | Plant response rating, Ryegrass, Italian [7, 18]: 85 | Plant response rating, Ryegrass, Italian [7, 19]: 90 | Plant response rating, Ryegrass, Italian [7, 17]: 85 | Barley, Spring plant response rating [8, 14]: 0 | Plant response rating, Barley, Spring [8, 15]: 15 | Plant response rating, Barley, Spring [8, 16]: 20 | Plant response rating (scale of 0 to 100), Barley, Spring ([8]; Preemergence, 31 g ai/ha): 0 | Plant response rating, Barley, Spring [8, 20]: 0 | Plant response rating, Barley, Spring [8, 18]: 0 | Plant response rating, Barley, Spring [8, 19]: 5 | Plant response rating, Barley, Spring [8, 17]: 0 | Bromegrass, Downy plant response rating [9, 14]: 30 | Plant response rating, Bromegrass, Downy [9, 15]: 35 | Plant response rating, Bromegrass, Downy [9, 16]: 60 | Plant response rating (scale of 0 to 100), Bromegrass, Downy ([9]; Preemergence, 31 g ai/ha): 15 | Plant response rating, Bromegrass, Downy [9, 20]: 35 | Plant response rating, Bromegrass, Downy [9, 18]: 55 | Plant response rating, Bromegrass, Downy [9, 19]: 80 | Plant response rating, Bromegrass, Downy [9, 17]: 30 | Deadnettle plant response rating [10, 14]: 10 | Plant response rating, Deadnettle [10, 15]: 40 | Plant response rating, Deadnettle [10, 16]: 45 | Plant response rating (scale of 0 to 100), Deadnettle ([10]; Preemergence, 31 g ai/ha): 0 | Plant response rating (scale of 0 to 100), Deadnettle ([10]; Preemergence, 62 g ai/ha): 0 | Plant response rating, Deadnettle [10, 18]: 10 | Plant response rating, Deadnettle [10, 19]: 35 | Plant response rating, Deadnettle [10, 17]: 15 | Barley, Winter plant response rating [11, 14]: 0 | Plant response rating, Barley, Winter [11, 15]: 5 | Plant response rating, Barley, Winter [11, 16]: 10 | Plant response rating (scale of 0 to 100), Barley, Winter ([11]; Preemergence, 31 g ai/ha): 0 | Plant response rating, Barley, Winter [11, 20]: 0 | Plant response rating, Barley, Winter [11, 18]: 0 | Plant response rating, Barley, Winter [11, 19]: 15 | Plant response rating, Barley, Winter [11, 17]: 0 | Field Poppy plant response rating [12, 14]: 70 | Plant response rating, Field Poppy [12, 15]: 80 | Plant response rating, Field Poppy [12, 16]: 95 | Plant response rating, Field Poppy [12, 19]: 95 | Plant response rating, Field Poppy [12, 17]: 90 | Wheat, Winter plant response rating [13, 14]: 0 | Plant response rating, Wheat, Winter [13, 15]: 0 | Plant response rating, Wheat, Winter [13, 16]: 10 | Plant response rating (scale of 0 to 100), Wheat, Winter ([13]; Preemergence, 31 g ai/ha): 0 | Plant response rating (scale of 0 to 100), Wheat, Winter ([13]; Preemergence, 62 g ai/ha): 0 | Plant response rating, Wheat, Winter [13, 18]: 5 | Plant response rating, Wheat, Winter [13, 19]: 15 | Plant response rating, Wheat, Winter [13, 17]: 0
